Results: PubChem BioAssay (NCI)
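48-hour exposure; five concentrations; linearly interpolated endpoints. At the GI50, growth is halved. The concentration for full growth arrest is given as TGI.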

Columns and labels:
Test in all cases: NCI-60 cell line screen, 48 h
SF-268 CNS = tested on: SF-268 CNS
A498 renal = tested on: A498 renal
KM12 colon = tested on: KM12 colon
K-562 leukemia = tested on: K-562 leukemia
U251 CNS = tested on: U251 CNS
COLO 205 colon = tested on: COLO 205 colon
SN12C renal = tested on: SN12C renal
MDA-MB-435 = tested on: MDA-MB-435
NCI-H226 lung = tested on: NCI-H226 lung
HCC-2998 colon = tested on: HCC-2998 colon
OVCAR-8 ovarian = tested on: OVCAR-8 ovarian
CAKI-1 renal = tested on: CAKI-1 renal
MDA-MB-231 breast = tested on: MDA-MB-231 breast
SK-MEL-5 melanoma = tested on: SK-MEL-5 melanoma
CCRF-CEM leukemia = tested on: CCRF-CEM leukemia
T-47D breast = tested on: T-47D breast
BT-549 breast = tested on: BT-549 breast
MOLT-4 leukemia = tested on: MOLT-4 leukemia
HCT-15 colon = tested on: HCT-15 colon
NCI-H460 lung = tested on: NCI-H460 lung
UO-31 renal = tested on: UO-31 renal
SNB-19 CNS = tested on: SNB-19 CNS
NCI-H23 lung = tested on: NCI-H23 lung
SF-295 CNS = tested on: SF-295 CNS
MCF7 breast = tested on: MCF7 breast
SF-539 CNS = tested on: SF-539 CNS
OVCAR-5 ovarian = tested on: OVCAR-5 ovarian
OVCAR-3 ovarian = tested on: OVCAR-3 ovarian
HS 578T breast = tested on: HS 578T breast
SW-620 colon = tested on: SW-620 colon
UACC-62 melanoma = tested on: UACC-62 melanoma
PC-3 prostate = tested on: PC-3 prostate
SNB-75 CNS = tested on: SNB-75 CNS
UACC-257 melanoma = tested on: UACC-257 melanoma
LOX IMVI melanoma = tested on: LOX IMVI melanoma
RXF 393 renal = tested on: RXF 393 renal
EKVX NSCLC = tested on: EKVX NSCLC
SK-OV-3 ovarian = tested on: SK-OV-3 ovarian
HOP-92 NSCLC = tested on: HOP-92 NSCLC
786-0 renal = tested on: 786-0 renal
NCI/ADR-RES ovarian = tested on: NCI/ADR-RES ovarian
M14 melanoma = tested on: M14 melanoma
HOP-62 NSCLC = tested on: HOP-62 NSCLC
A549 NSCLC = tested on: A549 NSCLC
SK-MEL-2 melanoma = tested on: SK-MEL-2 melanoma
HCT-116 colon = tested on: HCT-116 colon
IGROV1 ovarian = tested on: IGROV1 ovarian
DU-145 prostate = tested on: DU-145 prostate
SR leukemia = tested on: SR leukemia
ACHN renal = tested on: ACHN renal
MALME-3M melanoma = tested on: MALME-3M melanoma
SK-MEL-28 melanoma = tested on: SK-MEL-28 melanoma
NCI-H522 lung = tested on: NCI-H522 lung
OVCAR-4 ovarian = tested on: OVCAR-4 ovarian
RPMI-8226 leukemia = tested on: RPMI-8226 leukemia
TK-10 renal = tested on: TK-10 renal
HL-60(TB) leukemia = tested on: HL-60(TB) leukemia

Cn1cc(-c2nc(-c3c[nH]c4ncccc34)cs2)c2cc(Cl)ccc21
GI50 (SF-268 CNS): 5.28 µM
TGI (SF-268 CNS): > 100 µM
GI50 (A498 renal): 2.61 µM
TGI (A498 renal): 12.9 µM
GI50 (KM12 colon): 2.26 µM
TGI (KM12 colon): 7.47 µM
GI50 (K-562 leukemia): 2.76 µM
TGI (K-562 leukemia): 15.2 µM
GI50 (U251 CNS): 3.85 µM
TGI (U251 CNS): 30.8 µM
GI50 (COLO 205 colon): 3.74 µM
TGI (COLO 205 colon): 14.6 µM
GI50 (SN12C renal): 4.72 µM
TGI (SN12C renal): 94.2 µM
GI50 (MDA-MB-435): 3.47 µM
TGI (MDA-MB-435): > 100 µM
GI50 (NCI-H226 lung): 11.9 µM
TGI (NCI-H226 lung): > 100 µM
GI50 (HCC-2998 colon): 3.47 µM
TGI (HCC-2998 colon): 28.3 µM
GI50 (OVCAR-8 ovarian): 6.04 µM
TGI (OVCAR-8 ovarian): > 100 µM
GI50 (CAKI-1 renal): 2.65 µM
TGI (CAKI-1 renal): 9.22 µM
GI50 (MDA-MB-231 breast): 2.65 µM
TGI (MDA-MB-231 breast): 54.1 µM
GI50 (SK-MEL-5 melanoma): 7.48 µM
TGI (SK-MEL-5 melanoma): > 100 µM
GI50 (CCRF-CEM leukemia): 5.51 µM
TGI (CCRF-CEM leukemia): > 100 µM
GI50 (T-47D breast): 0.0913 µM
TGI (T-47D breast): 23.6 µM
GI50 (BT-549 breast): 27.3 µM
TGI (BT-549 breast): > 100 µM
GI50 (MOLT-4 leukemia): 4.27 µM
TGI (MOLT-4 leukemia): > 100 µM
GI50 (HCT-15 colon): 2.34 µM
TGI (HCT-15 colon): > 100 µM
GI50 (NCI-H460 lung): 3.2 µM
TGI (NCI-H460 lung): > 100 µM
GI50 (UO-31 renal): 2.81 µM
TGI (UO-31 renal): 75.5 µM
GI50 (SNB-19 CNS): 6.61 µM
TGI (SNB-19 CNS): > 100 µM
GI50 (NCI-H23 lung): 5.01 µM
TGI (NCI-H23 lung): > 100 µM
GI50 (SF-295 CNS): 2.35 µM
TGI (SF-295 CNS): 8.75 µM
GI50 (MCF7 breast): 1.16 µM
TGI (MCF7 breast): > 100 µM
GI50 (SF-539 CNS): 12.1 µM
TGI (SF-539 CNS): > 100 µM
GI50 (OVCAR-5 ovarian): 1.61 µM
TGI (OVCAR-5 ovarian): > 100 µM
GI50 (OVCAR-3 ovarian): 7.47 µM
TGI (OVCAR-3 ovarian): 29.7 µM
GI50 (HS 578T breast): 4.18 µM
TGI (HS 578T breast): 32.7 µM
GI50 (SW-620 colon): 5.3 µM
TGI (SW-620 colon): > 100 µM
GI50 (UACC-62 melanoma): 8.8 µM
TGI (UACC-62 melanoma): > 100 µM
GI50 (PC-3 prostate): 3.62 µM
TGI (PC-3 prostate): > 100 µM
GI50 (SNB-75 CNS): 3.52 µM
TGI (SNB-75 CNS): > 100 µM
GI50 (UACC-257 melanoma): 3.26 µM
TGI (UACC-257 melanoma): 16.5 µM
GI50 (LOX IMVI melanoma): 3.61 µM
TGI (LOX IMVI melanoma): > 100 µM
GI50 (RXF 393 renal): 4.63 µM
TGI (RXF 393 renal): > 100 µM
GI50 (EKVX NSCLC): 0.678 µM
TGI (EKVX NSCLC): > 100 µM
GI50 (SK-OV-3 ovarian): 16.1 µM
TGI (SK-OV-3 ovarian): > 100 µM
GI50 (HOP-92 NSCLC): 2.93 µM
TGI (HOP-92 NSCLC): 18.4 µM
GI50 (786-0 renal): 4.62 µM
TGI (786-0 renal): > 100 µM
GI50 (NCI/ADR-RES ovarian): 3.94 µM
TGI (NCI/ADR-RES ovarian): > 100 µM
GI50 (M14 melanoma): 4.85 µM
TGI (M14 melanoma): 40.7 µM
GI50 (HOP-62 NSCLC): 25.3 µM
TGI (HOP-62 NSCLC): > 100 µM
GI50 (A549 NSCLC): 3.94 µM
TGI (A549 NSCLC): > 100 µM
GI50 (SK-MEL-2 melanoma): 13.3 µM
TGI (SK-MEL-2 melanoma): > 100 µM
GI50 (HCT-116 colon): 4.34 µM
TGI (HCT-116 colon): > 100 µM
GI50 (IGROV1 ovarian): 4.54 µM
TGI (IGROV1 ovarian): > 100 µM
GI50 (DU-145 prostate): 5.67 µM
TGI (DU-145 prostate): > 100 µM
GI50 (SR leukemia): 6.92 µM
TGI (SR leukemia): > 100 µM
GI50 (ACHN renal): 3.6 µM
TGI (ACHN renal): > 100 µM
GI50 (MALME-3M melanoma): 12.5 µM
TGI (MALME-3M melanoma): 56.7 µM
GI50 (SK-MEL-28 melanoma): 7.43 µM
TGI (SK-MEL-28 melanoma): > 100 µM
GI50 (NCI-H522 lung): 5.56 µM
TGI (NCI-H522 lung): > 100 µM
GI50 (OVCAR-4 ovarian): 0.37 µM
TGI (OVCAR-4 ovarian): > 100 µM
GI50 (RPMI-8226 leukemia): 4.87 µM
TGI (RPMI-8226 leukemia): > 100 µM
GI50 (TK-10 renal): 5.78 µM
TGI (TK-10 renal): > 100 µM
GI50 (HL-60(TB) leukemia): 5.93 µM
TGI (HL-60(TB) leukemia): > 100 µM
